Usually EC50 stands for the concentration that produces a half-maximal response.

The target in this assay is T1, human FXR (NR1H4) (Homo sapiens, UniProt Q96RI1).
T1 construct: host or cells: CHO (Chinese hamster ovary) reporter cells
T1 sequence (Q96RI1 1-486): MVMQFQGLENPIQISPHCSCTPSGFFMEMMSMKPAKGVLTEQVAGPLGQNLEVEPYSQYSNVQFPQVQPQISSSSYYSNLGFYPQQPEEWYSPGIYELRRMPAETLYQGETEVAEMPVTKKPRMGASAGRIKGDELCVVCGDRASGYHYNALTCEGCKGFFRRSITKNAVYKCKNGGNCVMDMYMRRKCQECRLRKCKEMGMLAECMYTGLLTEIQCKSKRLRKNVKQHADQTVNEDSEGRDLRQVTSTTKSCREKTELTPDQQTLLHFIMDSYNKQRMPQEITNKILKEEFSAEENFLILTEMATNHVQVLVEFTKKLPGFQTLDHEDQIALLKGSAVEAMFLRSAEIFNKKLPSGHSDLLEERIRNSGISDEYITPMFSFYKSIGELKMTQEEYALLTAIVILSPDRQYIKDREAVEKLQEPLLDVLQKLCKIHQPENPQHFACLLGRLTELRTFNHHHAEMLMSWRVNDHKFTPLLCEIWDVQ
Description: Human FXR (NR1H4) Assay, luciferase reporter in CHO cells (Indigo Bioscience kit IB00601). Format: cell-based. The conditions noted are these: for EC50: CHO cells expressing human NR1H4, 22 hours incubation, potency ranges; for Efficacy (%): efficacy normalized to CDCA set as 100%. From the text: Human FXR (NR1H4) Assay Determination of a ligand mediated Gal4 promoter driven transactivation to quantify ligand binding mediated activation of FXR. FXR Reporter Assay kit purchased from Indigo Bioscience (Catalogue number: IB00601) to determine the potency and efficacy of compound developed by Enanta that can induce FXR activation. The principle application of this reporter assay system is to quantify functional activity of human FXR. The assay utilizes non-human mammalian cells, CHO (Chinese hamster ovary) cells engineered to express human NR1H4 protein (referred to as FXR). Reporter cells also incorporate the cDNA encoding beetle luciferase which catalyzes the substrates and yields photon emission. Luminescence intensity of the reaction is quantified using a plate-reading luminometer, Envision. Reporter Cells include the luciferase reporter gene functionally linked to an FXR responsive promoter. Thus, quantifying changes in luciferase expression in the treated reporter cells provides a sensitive surrogate measure of the changes in FXR activity. […] The assay is according to the manufacturer's instructions. […] Retrieve Reporter Cells from −80° C. storage. Perform a rapid thaw of the frozen cells by transferring a 10 ml volume of 37° C. cell recovery medium into the tube of frozen cells. Recap the tube of Reporter Cells and immediately place it in a 37° C. water bath for 5-10 minutes. Retrieve the tube of Reporter Cell Suspension from the water bath. Sanitize the outside surface of the tube with a 70% alcohol swab, and then transfer it into the cell culture hood. Dispense 90 μl of cell suspension into each well of the 96-well Assay Plate. Transfer the plate into 37° C. incubator, allowing the cells adherent to the bottom of the well. Dilute compounds in Dilution Plate (DP), and administrate to cells at Assay Plate (AP). DMSO content of the samples was kept at 0.2%. Cells were incubated for additional 22 hours before luciferase activities were measured. Thirty minutes before intending to quantify FXR activity, remove Detection Substrate and Detection Buffer from the refrigerator and place them in a low-light area so that they may equilibrate to room temperature. Remove the plate's lid and discard all media contents by ejecting it into an appropriate waste container. Gently tap the inverted plate onto a clean absorbent paper towel to remove residual droplets. Cells will remain tightly adhered to well bottoms. Add 100 μl of luciferase detection reagent to each well of the assay plate. Allow the assay plate to rest at room temperature for at least 5 minutes following the addition of LDR. Set the instrument (Envision) to perform a single 5 second “plate shake” prior to reading the first assay well. Read time may be 0.5 second (500 mSec) per well.
For orientation: In a reporter assay the amount or activity of a reporter protein is the signal.

Take `CC(C)c1onc(-c2c(Cl)cccc2Cl)c1COc1ccc2cc(-c3cccc(C(=O)O)c3)sc2c1` [Compound (1), reference compound]: the EC50 fell in the range of 100 to 1000 nM and the “Efficacy (%)” value was found to be 220%.
Take `CC(C)c1onc(-c2c(Cl)cccc2Cl)c1COc1ccc2cc(-c3cccc(C(=O)NS(=O)(=O)C4CC4)c3)sc2c1` [Example 303]: the concentration giving a half-maximal response (EC50) is 100 to 1000 nM and the “Efficacy (%)” value amounted to 190%.
On the same counts, the results for `CC(C)c1onc(-c2c(Cl)cccc2Cl)c1COc1ccc2cc(-c3cccc(C(=O)NS(=O)(=O)c4ccc(C(C)(C)C)cc4)c3)sc2c1` [Example 312] are 1000 to 10000 nM and 132%.
For `CC(C)c1onc(-c2c(Cl)cccc2Cl)c1COc1ccc2cc(-c3cccc(C(=O)NS(=O)(=O)N(C)C)c3)sc2c1` [Example 318] the same measures were 100 to 1000 nM and 116%.

For the origin of these results see patent publication US10080741B2, “Isoxazole derivatives as FXR agonists and methods of use thereof” (Enanta Pharmaceuticals, Inc., priority 2016, dated 2018).
